The test system of the assay is H1N1 (influenza A/New Caledonia/20/99). As to the kind of experiment: microbe, parasite or virus in culture. The assay is classed as cell-based. The following applies: H1N1, A549, 48 h.

Structures are written as SMILES.

The term IC50 denotes the concentration that gives 50% inhibition. A low value points to inhibition by little substance. The compound `CC1(C)Cc2c(sc(NC(=O)c3ccc(NC4CCOC4)cc3)c2C(=O)O)C(C)(C)C1` (centres unmarked) [Compound #61, 5,5,7,7-Tetramethyl-2-[[4-(tetrahydrofuran-3-ylamino)benzoyl]amino]-4,6-dihydrobenzothiophene-3-carboxylic acid] registered an IC50 of 27.9 nM. This counts as double-digit nanomolar.
For `CC1(C)CCc2sc(NC(=O)c3ccc(OC(F)(F)F)cc3)c(C(=O)O)c21` [Compound #40, 4,4-Dimethyl-2-[[4-(trifluoromethoxy)benzoyl]amino]-5,6-dihydrocyclopenta[b]thiophene-3-carboxylic acid], the IC50 stood at 230 nM.
Compound `CC1(C)CCc2c(sc(NC(=O)c3ccc(N4CCOCC4)cn3)c2C(=O)O)C1` [#229, 6,6-Dimethyl-2-[(5-morpholinopyridine-2-carbonyl)amino]-5,7-dihydro-4H-benzothiophene-3-carboxylic acid] came in with an IC50 of 370 nM.
Regarding `CC1(C)CCc2c(sc(NC(=O)c3cnc(N4CCOCC4)cn3)c2C(=O)O)C1` [#230, 6,6-Dimethyl-2-[(5-morpholinopyrazine-2-carbonyl)amino]-5,7-dihydro-4H-benzothiophene-3-carboxylic acid], the IC50 amounted to 420 nM.
Take `CC1(C)Cc2c(sc(NC(=O)c3ccc(NCC4COC4)cc3)c2C(=O)O)C(C)(C)C1` [Compound #59, 5,5,7,7-Tetramethyl-2-[[4-(oxetan-3-ylmethylamino)benzoyl]amino]-4,6-dihydrobenzothiophene-3-carboxylic acid]: the IC50 is 10 nM. Compared with the last compound, the IC50 is about 42-fold lower.
On to `Cn1cc(C(=O)Nc2sc3c(c2C(=O)O)CC(C)(C)CC3)cn1` [#202, 5,5-Dimethyl-2-[(1-methylpyrazole-4-carbonyl)amino]-6,7-dihydro-4H-benzothiophene-3-carboxylic acid], for which the midpoint of inhibition, the IC50, lay at 900 nM. Against the preceding compound, the IC50 is about 90-fold higher.
In turn, `CC1(C)CCc2c(sc(NC(=O)c3ccc(F)cc3)c2C(=O)O)C1` [Compound #19, 2-[(4-Fluorobenzoyl)amino]-6,6-dimethyl-5,7-dihydro-4H-benzothiophene-3-carboxylic acid] displayed an IC50 of 110 nM. Compared with the last compound, the IC50 is about 8.2-fold lower.
For `COCCN(C)c1ccc(C(=O)Nc2sc3c(c2C(=O)O)CC(C)(C)CC3(C)C)cc1` [Compound #150, 2-[[4-[2-Methoxyethyl(methyl)amino]benzoyl]amino]-5,5,7,7-tetramethyl-4,6-dihydrobenzothiophene-3-carboxylic acid], the IC50 was 3.9 nM.
In the case of `CC1(C)CCc2c(sc(NC(=O)c3ccnc(N4CCOCC4)c3)c2C(=O)O)C1` [#222, 6,6-Dimethyl-2-[(2-morpholinopyridine-4-carbonyl)amino]-5,7-dihydro-4H-benzothiophene-3-carboxylic acid], the IC50 stood at 51 nM.
`CC1(C)CCc2sc(NC(=O)c3ccc(Br)cc3)c(C(=O)O)c2C1` [Compound #154, 2-[(4-Bromobenzoyl)amino]-5,5-dimethyl-6,7-dihydro-4H-benzothiophene-3-carboxylic acid] registered an IC50 of 30 nM.
Consider `CC1(C)CCc2sc(NC(=O)c3ccccc3)c(C(=O)O)c2C1` [Compound #26, 2-Benzamido-5,5-dimethyl-6,7-dihydro-4H-benzothiophene-3-carboxylic acid], for which the IC50 was determined as 84.9 nM.
Turning to `CC1(C)CCc2c(sc(NC(=O)c3ccc(F)cc3F)c2C(=O)O)C1` [Compound #17, 2-[(2,4-Difluorobenzoyl)amino]-6,6-dimethyl-5,7-dihydro-4H-benzothiophene-3-carboxylic acid], the IC50 turned out to be 260 nM.
Regarding `CC1(C)CCc2c(sc(NC(=O)c3ccccn3)c2C(=O)O)C1` [Compound #96, 6,6-Dimethyl-2-(pyridine-2-carbonylamino)-5,7-dihydro-4H-benzothiophene-3-carboxylic acid], it took 800 nM to reach half-maximal inhibition (IC50).
For `CC1(C)CCc2c(sc(NC(=O)c3cnc(N4CCOCC4)nc3)c2C(=O)O)C1` [#208, 6,6-Dimethyl-2-[(2-morpholinopyrimidine-5-carbonyl)amino]-5,7-dihydro-4H-benzothiophene-3-carboxylic acid], the midpoint of inhibition, the IC50, lay at 740 nM.
Turning to `CN(c1ccc(C(=O)Nc2sc3c(c2C(=O)O)CC(C)(C)CC3)cc1)C1CCOCC1` [#160, 5,5-Dimethyl-2-[[4-[methyl(tetrahydropyran-4-yl)amino]benzoyl]amino]-6,7-dihydro-4H-benzothiophene-3-carboxylic acid], the IC50 worked out at 6 nM.
The value for `O=C(Nc1sc2c(c1C(=O)O)CCC1(CC1)C2)c1ccc(F)cc1` [Compound #32, 2-[(4-Fluorobenzoyl)amino]spiro[5,7-dihydro-4H-benzothiophene-6,1′-cyclopropane]-3-carboxylic acid] was 160 nM; that for `COc1ccc(C(=O)Nc2sc3c(c2C(=O)O)CC(C)(C)CC3)cc1OC` [Compound #27, 2-[(3,4-Dimethoxybenzoyl)amino]-5,5-dimethyl-6,7-dihydro-4H-benzothiophene-3-carboxylic acid] was 40 nM; that for `CC1(C)CCc2sc(NC(=O)c3cc[nH]n3)c(C(=O)O)c2C1` [#225, 5,5-Dimethyl-2-(1H-pyrazole-3-carbonylamino)-6,7-dihydro-4H-benzothiophene-3-carboxylic acid] was 110 nM.
In the case of `COCCNc1ccc(C(=O)Nc2sc3c(c2C(=O)O)C(C)CC(C)(C)C3)cc1` (centres unmarked) [Compound #145, 2-1-[[4-(2-Methoxyethylamino)benzoyl]amino]-4,6,6-trimethyl-5,7-dihydro-411-benzothiophene-3-carboxylic acid], the midpoint of inhibition, the IC50, lay at 32 nM.
As to `Cc1ccccc1C(=O)Nc1sc2c(c1C(=O)O)CCC(C#N)(c1ccccc1)C2` (centres unmarked) [Compound #105, 6-Cyano-2-[(2-methylbenzoyl)amino]-6-phenyl-5,7-dihydro-4H-benzothiophene-3-carboxylic acid], inhibition was half-maximal at 1080 nM (IC50).
As to `CC1(C)Cc2c(sc(NC(=O)c3ccc(N4CCC5(CC4)COC5)cc3)c2C(=O)O)C(C)(C)C1` [Compound #144, 5,5,7,7-Tetramethyl-2-[[4-(2-oxa-7-azaspiro[3.5]nonan-7-yl)benzoyl]amino]-4,6-dihydrobenzothiophene-3-carboxylic acid], the IC50 was found to be 35 nM.
On to `O=C(Nc1sc2c(c1C(=O)O)C1CCC2C1)c1ccccc1` (centres unmarked) [Compound #28, 2-Benzamido-4,5,6,7-tetrahydro-4,7-methanobenzo[b]thiophene-3-carboxylic acid], for which half-maximal inhibition (IC50) was put at 1270 nM.
Compound `CC1(C)Cc2c(sc(NC(=O)c3ccc(N4CCC(O)CC4)cc3)c2C(=O)O)C(C)(C)C1` [Compound #34, 2-[[4-(4-Hydroxy-1-piperidyl)benzoyl]amino]-5,5,7,7-tetramethyl-4,6-dihydrobenzothiophene-3-carboxylic acid] came in with an IC50 of 113 nM.
Turning to `COC1CN(c2ccc(C(=O)Nc3sc4c(c3C(=O)O)C(C)(C)CC4)cc2)C1` [Compound #146, 2-[[4-(3-Methoxyazetidin-1-yl)benzoyl]amino]-4,4-dimethyl-5,6-dihydrocyclopenta[b]thiophene-3-carboxylicacid], 83 nM corresponded to half-maximal inhibition (IC50).
To `CC1(C)Cc2c(sc(NC(=O)c3ccncn3)c2C(=O)O)C(C)(C)C1` [#205, 5,5,7,7-Tetramethyl-2-(pyrimidine-4-carbonylamino)-4,6-dihydrobenzothiophene-3-carboxylic acid] belongs 740 nM.
Compound `CC1(C)CCc2sc(NC(=O)c3ccc(Br)cc3)c(C(=O)O)c21` [Compound #158, 2-[(4-Bromobenzoyl)amino]-4,4-dimethyl-5,6-dihydro cyclopenta[b]thiophene-3-carboxylic acid] registered an IC50 of 320 nM.

The values above are taken from US11492347B2 (ENYO PHARMA, priority 2018, dated 2022).
